In US20210196779A1, “Compositions and Methods for Treating Steroid Hormone-Related Diseases or Disorders” (YALE UNIVERSITY, priority 2018, published 2021):
Read-outs that look alike come from different tables or passages of the source.

How the values were obtained:
Format in all cases: cell-based
[1] = system: LNCaP-GR (GR overexpressing) cells; assay: Cell growth assay, GR overexpressing LNCaP cells; conditions: for IC50: Homo sapiens, LNCaP, 96 h, 4 days, standardized to equivalent concentration of Y1830, read-out: IC50 for the inhibition of growth
Description: (§1) 20,000 cells in 1 ml of medium (phenol red free RPMI1640, 5% charcoal-dialysis FBS, 50 μg/ml Kanamyacin) were seeded per well of a 24-well plate and incubated in a 37° C. incubator with 5% CO2 overnight. Different concentrations of herbal extract were added to each well in order to have final concentrations from 50 μg/ml to 500 μg/ml. […] For glucocorticoid receptor overexpressed LNCaP cells, dexamethasone (50 nM) was used to stimulate glucocorticoid receptor activity. For all breast cancer cells, E2 (10 nM) was used to stimulate ER activity. Control medium without any steroid hormone was used as a control setting. After 4 days of incubation, cells were fixed and stained for 2 h with 0.5% methylene blue in 50% ethanol, followed by washing with tap water to remove unbound dye. Plates were air dried and then cells were dissolved in 1% sarkosyl (sodium lauroyl sarcosinate) by shaking at room temperature for 3 h. […] All experiments were performed in triplicate wells and were repeated at least three times.

[2] = system: PC3 cells; assay: Cell growth assay, PC3 cells; conditions: for IC50: Homo sapiens, PC-3, 96 h, 4 days, standardized to equivalent concentration of Y1830, read-out: IC50 for the inhibition of growth
Description: as §1

[3] = system: AR-V (truncated AR); assay: Western blot, 22RV1 cells, AR-V; conditions: presence or absence of DHT, 24 h
Description: (§2) Western blot analysis was used to determine the protein expression using protein specific antibodies.
(§3) Total cell lysis was conducted using 2×SDS sample buffer (62.5 mM Tris-HCl, 2% SDS, 10% glycerol, 50 mM DTT, and 0.05% bromophenol blue). The samples were sonicated for 10 s to shear DNA. Cell nuclei were isolated using Tris buffer saline with 0.4% NP40. Cell extracts were then electrophoresed through 10% SDS-polyacrylamide gels and transferred to 0.2 μm nitrocellulose membranes (Bio-Rad Laboratories, Hercules, Calif.) with a Miniprotein II transferring apparatus (Bio-Rad). The membranes were blocked and probed in TBS-T buffer (1×TBS buffer, 0.2% Tween 20) containing 5% non-fat milk. Monoclonal rabbit anti-AR (1:5000), was used to detect androgen receptor (Abcam #133273), Glucocorticoid Receptor (D8H2) XP® Rabbit mAb #3660, ERa Antibody (F-10): sc-8002, BRD4 (E2A7X) Rabbit mAb #13440, Brd2 (D89B4) Rabbit mAb #5848, PARP (46D11) Rabbit mAb #9532, Acetyl-Histone H3 (Lys27) (D5E4) XP® Rabbit mAb #8173 and a monoclonal actin antibody diluted 1:2500 (Sigma, St. Louis, Mo.) was used to detect β-actin as the internal control to confirm equal protein loading. […] Enhanced chemiluminescence reagents (Perkin-Elmer Life Science Products, Boston, Mass.) were used to visualize the immunoreactive bands and the densities of protein bands were scanned analyzed using ImageJ software from the NIH.

[4] = molecular target: T1, estrogen receptor ERa (Homo sapiens, UniProt P03372); assay: Western blot, MCF7 cells, ERa; conditions: presence or absence of E2, 24 h
T1 construct: endogenous in cells; host or cells: MCF7
Description: as §2, §3

[5] = system: beta-catenin (b-cat); assay: Western blot, 22RV1 cells, beta-catenin; conditions: presence or absence of DHT, 24 h
Description: as §2, §3

[6] = system: LNCaP cells; assay: Cell growth assay, LNCaP prostate cancer cells; conditions: for IC50: Homo sapiens, LNCaP, 96 h, 4 days, standardized to equivalent concentration of Y1830, read-out: IC50 for the inhibition of growth
Description: (§4) 22RV1 or LNCaP prostate cancer cells were grown in corning T75 cell culture flasks in RPMI1640 medium supplemented with 5% FBS, 50 μg/ml Kanamycin in a 37° C., 5% CO2 incubator.
as §1

[7] = system: GR; assay: Western blot, 22RV1 cells, GR; conditions: presence or absence of DHT, 24 h
Description: as §2, §3

[8] = system: 22Rv1 cells; assay: Cell growth assay, 22Rv1 prostate cancer cells; conditions: Homo sapiens, 22Rv1, 96 h, 4 days, standardized to equivalent concentration of Y1830, read-out: IC50 for the inhibition of growth
Description: as §4, §1

[9] = system: androgen receptor (AR); assay: PSA-luciferase reporter assay, DHT induced, 22RV1 cells; conditions: equivalent doses, 22RV1 cells in the presence of DHT
Description: 22RV1 or LNCaP prostate cancer cells were used in the screening study. 22RV1 or LNCaP cell lines were stably transfected with PSA promoter-PGL4.2 luciferase reporter. DHT (25 nM) was used to stimulate androgen receptor activity for 24 h.
Reporter cells were treated with herbal extracts at 30, 100, 300, and 1000 μg/ml for 24 h in a 37° C.-CO2 incubator. DHT (25 nM) was used to stimulate androgen receptor activity. Dexamethasone (50 nM) was used to stimulate glucocorticoid receptor activity Cells were lysed using luciferase lysis buffer after which luciferase buffer with luciferin was added to generate luminescence. Luminescence was recorded using a luminescence microplate reader.

[10] = system: cyclin D1 (cycD1); assay: Western blot, MCF7 cells, cyclin D1; conditions: presence or absence of E2, 24 h
Description: as §2, §3

[11] = system: beta-catenin (b-cat); assay: Western blot, MCF7 cells, beta-catenin; conditions: presence or absence of E2, 24 h
Description: as §2, §3

[12] = system: progesterone receptor PR (a and b); assay: Western blot, MCF7 cells, PR; conditions: presence or absence of E2, 24 h
Description: as §2, §3

[13] = molecular target: T2, AR (Homo sapiens, UniProt P10275); assay: Western blot, MCF7 cells, AR; conditions: presence or absence of E2, 24 h
T2 construct: endogenous in cells; host or cells: MCF7
Description: as §2, §3

[14] = system: AR; assay: Western blot, 22RV1 cells, AR; conditions: presence or absence of DHT, 24 h
Description: as §2, §3

[15] = system: cyclin D1 (cycD1); assay: Western blot, 22RV1 cells, cyclin D1; conditions: presence or absence of DHT, 24 h
Description: as §2, §3

[16] = system: estrogen receptor ERb; assay: Western blot, MCF7 cells, ERb; conditions: presence or absence of E2, 24 h
Description: as §2, §3

[17] = system: GR; assay: Western blot, MCF7 cells, GR; conditions: 24 h
Description: as §2, §3

T2 sequence (P10275 whole entry): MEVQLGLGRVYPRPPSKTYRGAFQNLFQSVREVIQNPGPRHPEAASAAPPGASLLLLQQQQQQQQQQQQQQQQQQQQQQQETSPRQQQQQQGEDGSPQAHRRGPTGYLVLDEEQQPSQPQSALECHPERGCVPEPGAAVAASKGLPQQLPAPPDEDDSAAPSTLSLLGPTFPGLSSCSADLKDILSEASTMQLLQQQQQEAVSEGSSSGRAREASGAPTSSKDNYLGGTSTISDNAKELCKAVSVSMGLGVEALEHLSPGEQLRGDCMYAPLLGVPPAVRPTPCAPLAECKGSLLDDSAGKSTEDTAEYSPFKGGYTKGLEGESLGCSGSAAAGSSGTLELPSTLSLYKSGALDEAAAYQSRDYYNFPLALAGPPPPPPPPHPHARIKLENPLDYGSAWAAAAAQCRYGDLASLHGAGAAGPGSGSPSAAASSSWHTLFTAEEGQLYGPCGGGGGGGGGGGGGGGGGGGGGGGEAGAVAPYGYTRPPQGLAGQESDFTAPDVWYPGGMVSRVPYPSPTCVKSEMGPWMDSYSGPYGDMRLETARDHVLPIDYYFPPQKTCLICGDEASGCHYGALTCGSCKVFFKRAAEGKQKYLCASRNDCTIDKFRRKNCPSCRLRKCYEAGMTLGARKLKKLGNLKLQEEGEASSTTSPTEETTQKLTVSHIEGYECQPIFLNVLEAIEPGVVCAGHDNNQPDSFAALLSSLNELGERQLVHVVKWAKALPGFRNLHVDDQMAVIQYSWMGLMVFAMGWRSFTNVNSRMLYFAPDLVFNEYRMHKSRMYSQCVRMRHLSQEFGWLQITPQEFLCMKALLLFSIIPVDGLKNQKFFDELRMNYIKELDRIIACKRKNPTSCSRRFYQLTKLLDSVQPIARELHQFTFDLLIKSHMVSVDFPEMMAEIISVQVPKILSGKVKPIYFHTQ
T1 sequence (P03372 whole entry): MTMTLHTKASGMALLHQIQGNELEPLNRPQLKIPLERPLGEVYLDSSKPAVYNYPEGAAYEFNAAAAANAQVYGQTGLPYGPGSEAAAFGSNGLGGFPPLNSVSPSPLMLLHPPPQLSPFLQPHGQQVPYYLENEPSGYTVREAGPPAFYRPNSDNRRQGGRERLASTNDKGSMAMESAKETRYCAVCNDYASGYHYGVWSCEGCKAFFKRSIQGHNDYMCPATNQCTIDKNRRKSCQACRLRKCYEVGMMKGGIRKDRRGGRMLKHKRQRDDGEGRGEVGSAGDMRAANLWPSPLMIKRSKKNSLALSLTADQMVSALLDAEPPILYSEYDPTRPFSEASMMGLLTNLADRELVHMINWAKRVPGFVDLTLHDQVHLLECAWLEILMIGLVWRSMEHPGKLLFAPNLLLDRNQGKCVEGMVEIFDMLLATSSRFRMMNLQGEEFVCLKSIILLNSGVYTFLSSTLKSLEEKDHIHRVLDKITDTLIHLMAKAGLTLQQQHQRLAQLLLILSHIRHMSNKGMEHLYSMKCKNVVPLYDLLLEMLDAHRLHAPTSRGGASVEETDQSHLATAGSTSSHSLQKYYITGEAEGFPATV

| Compound | IC50 ([1]; LNCaP-GR w/DEX 50 nM) [µg/mL] | IC50 ([1]; LNCaP-GR w/DHT 2 nM) [µg/mL] | IC50 ([1]; LNCaP-GR, no DHT/DEX) [µg/mL] | IC50 ([2]; PC3, no DEX) [µg/mL] | IC50 ([2]; PC3 w/DEX 50 nM) [µg/mL] | AR-V protein expression [3] | ERa protein expression [4] | beta-catenin protein expression [5] | IC50 ([6]; LNCaP w/DHT 2 nM) [µg/mL] | IC50 ([6]; no DHT) [µg/mL] | GR protein expression [7] | IC50 ([8]; 22Rv1, no DHT/DEX) [µg/mL] | IC50 ([8]; 22Rv1 w/DEX 50 nM) [µg/mL] | IC50 ([8]; 22Rv1 w/DHT 25 nM) [µg/mL] | inhibitory effect on AR mediated transcriptional response [9] | cyclin D1 protein expression [10] | beta-catenin protein expression [11] | PR (a and b) protein expression [12] | AR protein expression [13] | AR protein expression [14] | further results |
| --- | --- | --- | --- | --- | --- | --- | --- | --- | --- | --- | --- | --- | --- | --- | --- | --- | --- | --- | --- | --- | --- |
| CC(=O)OCC1OC(Oc2cc3c(c(O)c2C)C(=O)c2ccc(O)cc2C3=O)C(OC2OC(C)C(O)C(O)C2O)C(O)C1O [RGA, 1,3,6-Trihydroxy-2-methyl-9,10-anthracenedione 3-O-[α-L-Rhamnopyranosyl-(1→2)-6-O-acetyl-β-D-glucopyranoside]] | 60 | 40 | 220 | 146 | 320 | downregulate | downregulate | moderate inhibitory effect | 50 | > 500 | but not GR | 306 | 220 | 253 | very similar anti-AR activity as the Y1830 water extract | strong inhibitory effects | moderate inhibitory effect | downregulate | downregulate | downregulate | inhibition of LNCaP-GR cell growth (in words) ([1]; in the presence of either DHT or DEX): effectively inhibited; inhibition of PC3 cell growth (in words) ([2]; with or without DEX): inhibited PC3 cell growth, but less effectively in the presence of DEX; susceptibility of LNCaP cell growth to treatment (in words) ([6]; in the absence of DHT): not be susceptible; sensitivity of LNCaP cell growth to treatment (in words) ([6]; in the presence of DHT): more sensitive; cyclin D1 protein expression [15]: strong inhibitory effect; ERb protein expression [16]: slightly downregulate; GR protein expression [17]: did not inhibited |
| Cc1c(OC2OC(CO)C(O)C(O)C2OC2OC(C)C(O)C(O)C2O)cc2c(c1O)C(=O)c1ccc(O)cc1C2=O [RG, 1,3,6-Trihydroxy-2-methyl-9,10-anthracenedione 3-O-[α-L-Rhamnopyranosyl-(1→2)-β-D-glucopyranoside]] | > 500 | > 500 | > 500 | > 500 | > 500 | did not have impact | did not have any impact | did not have impact | > 500 | > 500 | did not have impact | > 500 | > 500 | > 500 | very weak activity | did not have any impact | did not have any impact | did not have any impact | did not have any impact | did not have impact | cyclin D1 protein expression [15]: did not have impact; ERb protein expression [16]: did not have any impact; GR protein expression [17]: did not have any impact |
